According to US9266868B2, “Crystalline form of rivaroxaban dihydrate” (SANDOZ AG, priority 2010, dated 2016):

Tests used:
[1] = Polymorphic stability of Rivaroxaban dihydrate on storage (infrared spectroscopy); format: physicochemical; settings: about 25° C., relative humidity of about 76%, 6 weeks
Method: Infrared spectra (IR) were collected on a MKII Golden Gate™ Single Reflection Diamond ATR (attenuated total reflection) cell with a Bruker Tensor 27 FTIR spectrometer with 4 cm-1 resolution at ambient conditions. To collect a spectrum a spatula tip of a sample was applied to the surface of the diamond in powder form. Then the sample was pressed onto the diamond with a sapphire anvil and the spectrum was recorded. A spectrum of the clean diamond was used as background spectrum. A typical precision of the wavenumber values is in the range of about ±2 cm-1. Thus, an infrared peak that appears at 1716 cm-1 can appear between 1714 and 1718 cm-1 on most infrared spectrometers under standard conditions. […]

[2] = Moisture desorption isotherm / exposure to low relative humidity; format: physicochemical; settings: for relative humidity at which the dihydrate converts to an anhydrate form: 25° C., FIG. 7
Method: The moisture desorption isotherm were recorded with a SPS-11 moisture sorption analyzer (MD Messtechnik, Ulm, and D). The measurement cycle was performed by a decrease relative humidity (RH) in 10% steps. The equilibrium condition for each step was set to a mass constancy of ±0.001% over 50 min. The temperature was 25° C.±01° C.

[3] = cited from earlier work; for solubility (in words): WO 2007/039132, CHMP assessment report EMEA/H/C/000944

O=C(NC[C@H]1CN(c2ccc(N3CCOCC3=O)cc2)C(=O)O1)c1ccc(Cl)s1 [crystalline dihydrate of Rivaroxaban, Rivaroxaban Dihydrate]
polymorphic stability on storage ([1]; listed as Rivaroxaban Dihydrate): polymorphic stable | polymorphic stability on storage ([1]; listed as crystalline dihydrate): does not convert to other polymorphic forms | relative humidity at which the dihydrate converts to an anhydrate form [2]: less than 20% | relative humidity at which the dihydrate converts to an anhydrate form ([2]; listed as dihydrate of Rivaroxaban): about 25% | exposure time to low relative humidity sufficient for transformation into anhydrate form ([2]; less than 20% relative humidity): about one

O=C(NC[C@H]1CN(c2ccc(N3CCOCC3=O)cc2)C(=O)O1)c1ccc(Cl)s1 [amorphous form]
solubility (in words) [3]: higher solubility in comparison to modification I

O=C(NC[C@H]1CN(c2ccc(N3CCOCC3=O)cc2)C(=O)O1)c1ccc(Cl)s1 [Modification II]
higher solubility compared to modification I ([3]; described in WO 2007/039132): 4 fold

O=C(NC[C@H]1CN(c2ccc(N3CCOCC3=O)cc2)C(=O)O1)c1ccc(Cl)s1 [Form I of Rivaroxabin, 5-Chloro-N-({(5S)-2-oxo-3-[4-(3-oxomorpholin-4-yl]phenyl)-1,3-oxazolidin-5-yl}methyl)thiophene-2-carboxamide]
solubility (in words) [3]: relatively low solubility

O=C(NC[C@H]1CN(c2ccc(N3CCOCC3=O)cc2)C(=O)O1)c1ccc(Cl)s1.O=CO [formic acid solvate of Rivaroxaban, Rivaroxaban.Formic Acid Solvate]
stability on storage at low relative humidity (less than about 20% relative humidity at 25° C.): stable | behaviour on storage at higher relative humidity (relative humidity of more than 20%, e.g. 30%, 60% or 97%): formic acid is lost and the dihydrate of Rivaroxaban is formed | behaviour on suspending in aqueous medium (suspended in aqueous medium): pure dihydrate of Rivaroxaban is formed
